Structures are written as SMILES. Entries after “also recorded” stand apart in the source; their conditions may differ. Some results are limits rather than exact numbers.

Consider three compounds from patent US11091472B2, “PI-kinase inhibitors with anti-infective activity” (The Board of Trustees of the Leland Stanford Junior …, priority 2016, dated 2021).

A short description of series [1]: in vitro. The series is classed as cell-based.
For series [2], the system named is HCV. The series can be described thus: HCV standard replication assay. Conditions: Hepatitis C virus, read-out: EC50 against HCV.
In series [3] the test system is ER-localized calnexin. Description: Calnexin co-staining as control for ER morphology. In kind it is cell-based. The following applies: co-stained with antibody to calnexin. How it is done:
(§1) To further confirm its mechanism of action the effect of (1) on PI-4 levels was determined in cells using immunofluorescence to monitor the intracellular localized pools of PI-4. The effect of (1) on intracellular pools of PIP2 was tested, which were predicted to be similarly sensitive to inhibition using (1). […] Uninfected Huh7.5 cells or HCV-infected Huh7.5 cells were used. Cells were treated with […], 500 nM or 1 uM concentrations of (1) or vehicle control, and analyzed by immunofluorescence with antibodies to PI(4)P or PI(4,5)P2 along with an antibody to calnexin to control for ER morphology.

Series [4] concerns HCV replicon. The following applies: HCV replicon system.
The test system of series [5] is PI(4,5)P2. The series can be described thus: Immunofluorescence of intracellular PIP2 pools in cells. The following applies: Huh7.5 cells, uninfected or HCV-infected, 250 nm, 500 nM or 1 uM. The series is classed as cell-based. On the procedure:
as §1

Series [6] concerns PI(4)P. The series can be described thus: Immunofluorescence of intracellular PI-4 pools in cells. In kind it is cell-based. The following applies: Huh7.5 cells, uninfected or HCV-infected, 250 nm, 500 nM or 1 uM. On the procedure: as §1
Series [7] concerns HRV. The series can be described thus: Rhinovirus antiviral assay. The series is classed as cell-based. The following applies: Human rhinovirus sp.
Series [8] deals with Adenovirus 5 (Adenoid 75). The series can be described thus: Adenovirus 5 cell based antiviral assay. Conditions: Human mastadenovirus C.
The subject of series [9] is Enterovirus 71. The series can be described thus: Enterovirus 71 cell based antiviral assay. Conditions: Enterovirus A.
A short description of series [10]: Cell toxicity (CC50). The following applies: human, HuH-7 cells. In kind it is cell-based.
In series [11] the test system is Coxsackie virus B3. Description: Coxsackie virus B3 cell based antiviral assay. Conditions: Enterovirus B.
Series [12] concerns the target PI4KIIIB (Bos taurus (Bovine), UniProt O02810). Description: PI4KIIIβ kinase assay (immunoprecipitated HA-tagged enzyme, [γ-32P]-ATP). In kind it is biochemical. Conditions: kinase activity.
Series [13] concerns Poliovirus (WM-3). Description: microbe, parasite or virus in culture. The series is classed as cell-based. Conditions: Enterovirus C, read-out: Poliovirus (WM-3) EC50 (uM).
Series [14] deals with PI3K p110a (Homo sapiens (Human), UniProt P42336). The series can be described thus: PI3K p110a kinase assay. The series is classed as biochemical. Conditions: kinase activity.
The test system of series [15] is MERS coronavirus. The series can be described thus: microbe, parasite or virus in culture. The series is classed as cell-based. Conditions: Middle East respiratory syndrome-related coronavirus, read-out: MERS coronavirus EC50 (uM).
The target in series [16] is PI4KIIIA (Homo sapiens (Human), UniProt P42356). Description: PI4KIIIα kinase assay (immunoprecipitated HA-tagged enzyme, [γ-32P]-ATP). The series is classed as biochemical. Conditions: kinase activity.
Series [17] has as its system Influenza A virus H1N1. Description: Influenza A virus H1N1 cell based antiviral assay.
Series [18] deals with PI3K p110g (Homo sapiens (Human), UniProt P48736). Description: PI3K p110g kinase assay. In kind it is biochemical. Conditions: kinase activity.
Series [19] relates to NV (GT1). The series can be described thus: NV (GT1) cell based antiviral assay. How it is done: Compounds of interest were tested in a variety of cell based assays for antiviral activity.
The test system of series [20] is EV71. Description: EV71 antiviral assay. The series is classed as cell-based. The following applies: Enterovirus A.
Series [21] has as its system Enterovirus 68. The series can be described thus: Enterovirus 68 cell based antiviral assay. The following applies: Enterovirus D.
Series [22] deals with HCV2a. The series can be described thus: microbe, parasite or virus in culture. The following applies: Hepatitis C virus, Huh7.5, read-out: HCV2a EC50. In kind it is cell-based, HCV.
For series [23], the system named is Dengue virus 2. The series can be described thus: Dengue virus 2 cell based antiviral assay.
Series [24] deals with PI3KC2G (Homo sapiens (Human), UniProt O75747). The series can be described thus: PI3KC2G kinase assay. The series is classed as biochemical. Conditions: kinase activity. On the procedure: PI-kinase assay: Compounds are tested in C.1.1. PI kinase assays as described by Shokat et al., “A membrane capture assay for lipid kinase activity.” Nat. Protoc.
(§2) Selected compounds of Table 1 and 2 were prepared and tested for inhibition activity in a variety of kinase assays.

For series [25], the target named is PI3KC2B (Homo sapiens (Human), UniProt O00750). Description: PI3KC2B kinase assay. In kind it is biochemical. The following applies: kinase activity. On the procedure: PI-kinase assay: Compounds are tested in C.1.1. PI kinase assays as described by Shokat et al., “A membrane capture assay for lipid kinase activity.” Nat. Protoc. 2007; 2(10):2459-66.
as §2

The test system of series [26] is Ebola. The series can be described thus: microbe, parasite or virus in culture. The series is classed as cell-based. Conditions: Zaire ebolavirus, read-out: Ebola EC50.

PI4KIIIB, sequence (O02810 whole entry): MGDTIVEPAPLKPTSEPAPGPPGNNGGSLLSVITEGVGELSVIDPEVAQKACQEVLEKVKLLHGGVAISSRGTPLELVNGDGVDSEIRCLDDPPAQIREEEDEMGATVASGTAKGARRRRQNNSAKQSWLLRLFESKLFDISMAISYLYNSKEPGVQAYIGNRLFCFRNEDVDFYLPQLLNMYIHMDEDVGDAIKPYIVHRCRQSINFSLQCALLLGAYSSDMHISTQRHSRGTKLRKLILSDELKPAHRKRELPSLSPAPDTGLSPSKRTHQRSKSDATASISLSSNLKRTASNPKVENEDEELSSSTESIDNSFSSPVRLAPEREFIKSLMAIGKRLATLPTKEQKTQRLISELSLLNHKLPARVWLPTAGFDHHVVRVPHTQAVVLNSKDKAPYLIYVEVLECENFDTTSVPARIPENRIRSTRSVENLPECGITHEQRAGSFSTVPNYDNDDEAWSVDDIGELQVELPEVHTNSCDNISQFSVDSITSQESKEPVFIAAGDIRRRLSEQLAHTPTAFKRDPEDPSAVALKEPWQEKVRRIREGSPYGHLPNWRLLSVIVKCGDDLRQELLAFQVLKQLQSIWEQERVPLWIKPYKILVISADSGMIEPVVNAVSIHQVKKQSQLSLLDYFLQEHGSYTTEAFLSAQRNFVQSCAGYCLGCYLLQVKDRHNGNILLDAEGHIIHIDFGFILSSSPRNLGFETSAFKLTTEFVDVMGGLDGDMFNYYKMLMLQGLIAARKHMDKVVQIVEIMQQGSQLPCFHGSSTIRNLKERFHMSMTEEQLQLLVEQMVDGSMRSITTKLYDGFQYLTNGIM
PI3K p110a, sequence (P42336 whole entry): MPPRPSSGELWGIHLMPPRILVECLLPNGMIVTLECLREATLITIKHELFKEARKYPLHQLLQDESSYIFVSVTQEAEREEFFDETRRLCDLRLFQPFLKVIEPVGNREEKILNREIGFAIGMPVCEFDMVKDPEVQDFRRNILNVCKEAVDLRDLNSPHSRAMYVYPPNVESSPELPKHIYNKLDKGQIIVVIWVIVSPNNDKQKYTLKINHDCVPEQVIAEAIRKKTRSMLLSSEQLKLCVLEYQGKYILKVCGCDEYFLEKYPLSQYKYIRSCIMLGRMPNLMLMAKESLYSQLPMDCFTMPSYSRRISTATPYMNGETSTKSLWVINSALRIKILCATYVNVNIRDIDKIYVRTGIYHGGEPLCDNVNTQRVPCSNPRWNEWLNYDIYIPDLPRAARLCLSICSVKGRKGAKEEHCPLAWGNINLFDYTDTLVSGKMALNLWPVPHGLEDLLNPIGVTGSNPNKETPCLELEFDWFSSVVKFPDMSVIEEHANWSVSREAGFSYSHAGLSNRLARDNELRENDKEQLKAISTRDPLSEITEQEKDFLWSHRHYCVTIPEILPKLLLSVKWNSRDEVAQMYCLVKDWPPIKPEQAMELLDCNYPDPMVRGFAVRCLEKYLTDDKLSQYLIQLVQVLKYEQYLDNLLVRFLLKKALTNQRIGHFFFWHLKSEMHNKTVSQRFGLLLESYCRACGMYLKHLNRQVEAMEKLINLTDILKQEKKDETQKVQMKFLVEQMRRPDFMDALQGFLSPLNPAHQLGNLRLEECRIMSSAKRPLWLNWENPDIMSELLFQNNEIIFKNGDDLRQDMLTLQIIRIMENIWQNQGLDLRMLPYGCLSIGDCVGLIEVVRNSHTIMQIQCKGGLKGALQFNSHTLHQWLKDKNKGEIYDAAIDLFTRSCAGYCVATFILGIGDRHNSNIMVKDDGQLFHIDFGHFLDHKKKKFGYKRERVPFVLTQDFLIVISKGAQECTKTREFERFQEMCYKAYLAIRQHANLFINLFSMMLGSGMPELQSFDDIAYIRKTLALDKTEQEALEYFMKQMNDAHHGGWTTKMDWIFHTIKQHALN
PI3K p110a, sequence (P27986 whole entry partner): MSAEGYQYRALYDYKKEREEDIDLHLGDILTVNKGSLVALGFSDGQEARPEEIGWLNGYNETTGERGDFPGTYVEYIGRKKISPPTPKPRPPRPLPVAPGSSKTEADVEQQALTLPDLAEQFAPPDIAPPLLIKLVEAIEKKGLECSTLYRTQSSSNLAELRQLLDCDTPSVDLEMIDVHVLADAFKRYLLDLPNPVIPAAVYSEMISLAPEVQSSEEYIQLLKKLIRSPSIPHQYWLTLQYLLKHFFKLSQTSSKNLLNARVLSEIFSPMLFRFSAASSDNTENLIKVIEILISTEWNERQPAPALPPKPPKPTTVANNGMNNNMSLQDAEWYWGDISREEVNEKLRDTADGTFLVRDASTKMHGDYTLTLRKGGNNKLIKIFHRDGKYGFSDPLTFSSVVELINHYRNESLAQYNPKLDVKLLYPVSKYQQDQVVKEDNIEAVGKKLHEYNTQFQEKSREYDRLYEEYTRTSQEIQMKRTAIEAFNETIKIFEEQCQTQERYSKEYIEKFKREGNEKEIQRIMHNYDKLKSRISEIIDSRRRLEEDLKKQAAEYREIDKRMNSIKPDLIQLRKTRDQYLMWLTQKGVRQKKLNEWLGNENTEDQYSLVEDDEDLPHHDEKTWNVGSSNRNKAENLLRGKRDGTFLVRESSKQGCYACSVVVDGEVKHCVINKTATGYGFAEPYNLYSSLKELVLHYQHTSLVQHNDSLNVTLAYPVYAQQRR
PI3K p110g, sequence (P48736 whole entry): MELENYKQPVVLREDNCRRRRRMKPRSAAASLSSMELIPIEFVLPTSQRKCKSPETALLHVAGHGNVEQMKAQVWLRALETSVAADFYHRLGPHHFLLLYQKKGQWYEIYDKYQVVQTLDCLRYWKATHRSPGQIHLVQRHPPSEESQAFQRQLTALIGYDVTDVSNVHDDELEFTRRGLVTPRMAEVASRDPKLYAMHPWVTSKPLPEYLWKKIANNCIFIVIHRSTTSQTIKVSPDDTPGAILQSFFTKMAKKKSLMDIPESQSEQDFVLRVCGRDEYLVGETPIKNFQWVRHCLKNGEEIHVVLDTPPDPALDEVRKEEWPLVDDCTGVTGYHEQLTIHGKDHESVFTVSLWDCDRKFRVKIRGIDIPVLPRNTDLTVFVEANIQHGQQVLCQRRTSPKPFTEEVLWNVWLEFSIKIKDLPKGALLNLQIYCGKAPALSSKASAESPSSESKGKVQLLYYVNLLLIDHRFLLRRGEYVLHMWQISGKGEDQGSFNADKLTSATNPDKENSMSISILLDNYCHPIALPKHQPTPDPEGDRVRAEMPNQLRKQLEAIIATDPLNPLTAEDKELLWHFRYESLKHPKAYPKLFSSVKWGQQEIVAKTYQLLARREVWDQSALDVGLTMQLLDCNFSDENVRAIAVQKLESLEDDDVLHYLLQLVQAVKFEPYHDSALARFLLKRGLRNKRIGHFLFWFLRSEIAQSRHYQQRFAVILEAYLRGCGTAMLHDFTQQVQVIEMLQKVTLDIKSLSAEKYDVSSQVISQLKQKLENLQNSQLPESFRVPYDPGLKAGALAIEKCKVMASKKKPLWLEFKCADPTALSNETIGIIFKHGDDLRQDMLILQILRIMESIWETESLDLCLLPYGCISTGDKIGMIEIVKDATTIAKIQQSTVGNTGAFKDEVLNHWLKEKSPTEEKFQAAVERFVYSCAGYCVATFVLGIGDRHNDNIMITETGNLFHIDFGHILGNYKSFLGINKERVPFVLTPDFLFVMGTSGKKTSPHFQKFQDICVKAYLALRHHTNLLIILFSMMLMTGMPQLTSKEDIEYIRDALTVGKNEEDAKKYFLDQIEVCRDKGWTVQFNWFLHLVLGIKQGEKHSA

Take `COc1ccc(-c2sc(NC(=O)C3CCCC3)nc2C)cc1S(=O)(=O)Nc1ccc(O)cc1` [Compound 1]: the CC50 in series [1] was more than 10000 nM. Also, the EC50 in series [2] was found to be 365 nM. The “effects on the ER” value in [3] is “absence of any detectable effects on the ER”. In addition, the selection of resistance result in series [4] is listed as “resistance was not able to be selected”. Besides, the “effect on intracellular pools of PIP2 (PI(4,5)P2)” value in [5] is listed as “dose-dependent decrease; also recorded: decreases”. In addition, the “effect on PI-4 (PI(4)P) levels in cells” value in series [6] was “dose-dependent decrease; also recorded: decreases”.
Regarding `COc1ccc(-c2sc(NC3CCCCCC3)nc2C)cc1S(=O)(=O)Nc1c(C)cccc1C` [Compound S-98], the EC50 in series [7] was less than 1 nM; in series [8], more than 10000 nM; in series [9], 1 to 100 nM; in series [11], 1 to 100 nM; in [13] it was 0.001 to 0.1 µM; in series [15], more than 10 µM. In addition, the 50% effective concentration (EC50) is more than 10000 nM in [17]; 1000 to 10000 nM in [19]; less than 1 nM in [20]; less than 1 nM in [21]; 1000 to 10000 nM in series [22]; more than 10000 nM in series [23]. In series [10], this compound had a 50% cytotoxic concentration (CC50) of more than 10000 nM. Further, the IC50 in series [12] was less than 100 nM; in series [14], more than 10000 nM; in series [16], more than 10000 nM; in series [18], more than 10000 nM.
Turning to `COc1ccc(-c2sc(NC(=O)CC3CCOCC3)nc2C)cc1S(=O)(=O)Nc1ccc(O)cc1` [Compound S-227], the EC50 in series [8] is more than 10000 nM; in series [9] it was 1 to 100 nM; in series [11], 1 to 100 nM; in series [13], 0.001 to 0.1 µM; in series [15], more than 10 µM; in series [26], 100 to 1000 nM. In addition, the EC50 was more than 10000 nM in [17]; 100 to 1000 nM in [19]; less than 1 nM in [21]; 1 to 100 nM in series [22]; more than 10000 nM in series [23]. Besides, the half-maximal cytotoxic concentration (CC50) in [10] is more than 10000 nM. In addition, the IC50 in series [12] was less than 100 nM; in series [24], 1000 to 10000 nM; in series [14], more than 10000 nM; in series [25] it was more than 10000 nM; in series [18], more than 10000 nM.
